Measurements published in patent US10821110B2, “Composite preparation, containing novel 3-(4--(benzyloxy)phenyl)hex-4-inoic acid derivative and another active ingredient, for preventing or treating metabolic diseases” (HYUNDAI PHARM CO., LTD., priority 2014, dated 2020).
pEC50: −log10 of the molar value. Like-named read-outs stand apart in the source and are kept apart here. Blank lines part the entries; values can stand above or below the compound they belong to.

Experiments:
[1] = tested on: Male Sprague Dawley (SD) rats; test: OGTT by co-administration with SGLT2 inhibitor-based drug (empagliflozin); format: in vivo, rat
Procedure: The experimental results were expressed as mean and standard error (Mean±SE), and the differences between the control and the experimental groups were tested by one-way ANOVA (a Dunnett method) of “GraphPad Prism 4” software (Graphpad co., La Jolla, Calif., USA). Here, p<0.05 was considered statistically significant.

Male Sprague Dawley rats = test: Oral glucose tolerance test (OGTT) 1; format: in vivo; conditions: Rattus norvegicus, 2 h; SD rats; 10 mg/kg oral; glucose 4 g/kg 30 minutes after; read-out: % AUC (reduction (%) of blood glucose AUC)
Procedure: Male Sprague Dawley rats aged 8-10 weeks old were acclimated for at least 7 days, and then only healthy animals were used for the oral glucose tolerance test (OGTT test). After fasting for 16-18 hours, five rats per group were randomly grouped and orally administered with the compounds prepared in Examples 2, 3, 4, 6, 9, 12, 14, 16, 25, 29, 36, 37, 41, 43, and 44 at a dose of 10 mg/kg each. Here, as for a non-treated group (vehicle), a solution (PEG 400/Tween 80/0.25% CMC, 5%/5%/90%, v/v/v) containing 5% polyethyleneglycol/5% tween 80/0.25% carboxymethylcelluluse (CMC) was orally administered at the same dose. Glucose (4 g/kg) was orally administered at a dose of 5 ml/kg 30 minutes after each sample was administered. Then, the blood glucose was measured by using Accu-chek active strip (Roche diagnostic Co.).

[2] = tested on: Male Sprague Dawley (SD) rats; test: Blood GLP-1 concentration increase after oral administration; format: in vivo, rat; conditions: Example 9 at 10-100 mg/kg, plasma after 20 minutes, FIG. 2
Procedure: After 20 minutes, about 0.5 ml of whole blood was collected by direct blood collection through cardiac injection, and the collected blood was immediately transferred to a sample tube treated with the dipeptidyl peptidase IV (DPPIV) inhibitor and ethylenediaminetetraacetic acid (EDTA), and placed in a container containing ice. The collected blood was centrifuged at 3600 rpm for 10 minutes to separate the plasma, and the separated plasma was measured for the plasma GLP-1 concentration through the GLP-1 ELISA kit (Millipore, USA).

[3] = tested on: male diet-induced obesity (DIO) mice; test: OGTT by co-administration with DPPIV inhibitor (sitagliptin), mouse model; format: in vivo; conditions: oral
Procedure: Here, as for a non-treated group, 5% carboxymethyl cellulose (CMC) was orally administered at the same dose. […] Each test sample and 0.5% carboxymethyl cellulase (CMC) were orally administered at 5 ml/kg.

[4] = tested on: Male Sprague Dawley (SD) rats; test: OGTT by co-administration with DPPIV inhibitor (linagliptin), SD rat model; format: in vivo; conditions: Example 9 3 mg/kg alone
Procedure: The blood glucose was measured by using Accu-chek active strip (Roche diagnostic Co.).

[5] = tested on: male diet-induced obesity (DIO) mice; test: OGTT by co-administration with sulfonylurea-based drug (glimepiride); format: in vivo, mouse; conditions: oral
Procedure: Here, as for a non-treated group, 5% carboxymethyl cellulose (CMC) was orally administered at the same dose. In addition, 10 mg/kg of glimepiride, which is well known as a sulfonylurea-based drug, was administered alone. […] The saline and test materials were orally administered at 5 ml/kg.

[6] = tested on: male Zucker diabetic fatty (ZDF) rats; test: OGTT by co-administration with biguanide-based drug (metformin), type II diabetic rat model; format: in vivo
[7] = tested on: Male Sprague Dawley (SD) rats; test: OGTT by co-administration with biguanide-based drug (metformin), SD rat model; format: in vivo
[8] = tested on: INS-1 cells (rat insulinoma cell line); test: Insulin secretion experiment; format: cell-based; conditions: 25 mM glucose
Procedure: INS-1 cells (rat insulinoma cell line) were seeded in a 24-well plate at 5×10^5 cells/well, and cultured for 48 hours. […] The amount of insulin secreted in the insulin ELISA kit (Morinaga) was measured using the supernatant of the cells after the experiment was ended (see Table 16 and FIG. 11).

[9] = tested on: male diet-induced obesity (DIO) mice; test: OGTT by co-administration with thiazolidinedione (TZD)-based drug; conditions: oral
Procedure: Here, as for a non-treated group, 5% carboxymethyl cellulose (CMC) was orally administered at the same dose. In addition, 10 mg/kg of rosiglitazone and pioglitazone, which are well known as thiazolidinedione (TZD)-based drugs, were administered alone. […] The saline and test materials were orally administered at 5 ml/kg.
After 60 minutes, glucose (4 g/kg) was orally administered at a dose of 5 ml/kg. The blood glucose was measured by using Accu-chek active strip (Roche diagnostic Co.).

human GPR40 = molecular target: T1, human GPR40 (Homo sapiens, UniProt O14842); test: Activation of GPR40 protein: intracellular calcium change (Fluo-4, Flexstation 3) in transfected HEK-293 cells; format: cell-based; conditions: HEK-293 cells transfected with human GPR40
T1 construct: host or cells: HEK-293
T1 sequence (O14842 whole entry): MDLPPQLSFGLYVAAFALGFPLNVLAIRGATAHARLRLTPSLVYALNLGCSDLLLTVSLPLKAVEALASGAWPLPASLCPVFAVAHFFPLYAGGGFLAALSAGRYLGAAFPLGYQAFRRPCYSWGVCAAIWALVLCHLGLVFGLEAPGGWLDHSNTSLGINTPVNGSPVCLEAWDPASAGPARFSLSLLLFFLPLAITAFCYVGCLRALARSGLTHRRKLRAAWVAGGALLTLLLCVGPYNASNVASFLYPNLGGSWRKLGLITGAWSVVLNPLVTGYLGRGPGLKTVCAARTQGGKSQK
Procedure: The activation of GPR40 protein by a novel 3-(4-(benzyloxy)phenyl)hex-4-ynoic acid derivative of the present invention was evaluated through the change in intracellular calcium concentration due to the activity of GPR40 protein. First, HEK-293 cells were transfected with human GPR40 DNA (Origene, RC218370) by using Fugene HD (Promega, E2311). […] After 24 hours, the cell culture medium was removed, and replaced with Dulbecco's Modified Eagle Medium (DMEM, 50 μl) supplemented with 1% fetal bovine serum (FBS). For the measurement of calcium concentration, 50 μL of Fluo-4 reagent (Invitrogen, F10471) was added to each well and cultured in a 37° C. incubator for 2 hours. […] Two hours after the initiation of the culture, the prepared samples were automatically injected into the cells using Flexstation 3 (Molecular Devices), and then, the change in intracellular calcium concentration was measured using SoftMax®Pro software for 120 seconds. Here, for a non-treated group, dimethylsulfoxide (DMSO) was injected into the cells to measure the change in calcium concentration. The GPR40 protein activity was calculated from the measured calcium concentration result values using equation 1 below, and the GPR40 activity (EC50 value) by the samples was obtained. […] GPR 40 activity=(intracellular calcium concentration increased by the sample)/(intracellular calcium concentration of the non-treated group)×100 [Equation 1]

[10] = intracellular calcium, read-out: EC50

pEC50 (human GPR40; [10]): < 6.52
Structure (SMILES): CC#CC(CC(=O)O)c1ccc(OCc2ccc(CN3CCc4cc(OC)ccc4C3)cc2)cc1 (stereo not drawn) [Example 16, 3-(4-(4-((6-methoxy-3,4-dihydroisoquinolin-2(1H)-yl)methyl)benzyloxy)phenyl)hex-4-ynoic acid]
inhibition in vivo at 10 mg/kg (Male Sprague Dawley rats): 21.1%

pEC50 (human GPR40; [10]): < 6.52
Structure (SMILES): CC#C[C@@H](CC(=O)O)c1ccc(OCc2ccc(CN3CCc4cc(OC)ccc4C3)cc2)cc1 [Example 25, (S)-3-(4-(4-((6-methoxy-3,4-dihydroisoquinolin-2(1H)-yl)methyl)benzyloxy)phenyl)hex-4-ynoic acid]
inhibition in vivo at 10 mg/kg (Male Sprague Dawley rats): 24.6%

pEC50 (human GPR40; [10]): < 6.52
Structure (SMILES): CC#C[C@@H](CC(=O)O)c1ccc(OCc2ccc(CN3CCN(c4ccc(OCCCS(C)(=O)=O)cc4)CC3)cc2)cc1 [Example 36, (S)-3-(4-(4-((4-(4-(3-(methylsulfonyl)propoxy)phenyl)piperazin-1-yl)methyl)benzyloxy)phenyl)hex-4-ynoic acid]
inhibition in vivo at 10 mg/kg (Male Sprague Dawley rats): 22.6%

pEC50 (human GPR40; [10]): < 6.52
Structure (SMILES): CC#C[C@@H](CC(=O)O)c1ccc(OCc2ccc(CN3CCCc4ccccc43)cc2)cc1 [Example 41, sodium (S)-3-(4-(4-((3,4-dihydroquinolin-1(2H)-yl)methyl)benzyloxy)phenyl)hex-4-ynoate]
inhibition in vivo at 10 mg/kg (Male Sprague Dawley rats): 23.7%

pEC50 (human GPR40; [10]): < 6.52
Structure (SMILES): CC#C[C@@H](CC(=O)O)c1ccc(OCc2ccc(CN3CCN(c4nc5ccccc5s4)CC3)cc2)cc1 [Example 43, (S)-3-(4-(4-((4-(benzo[d]thiazol-2-yl)piperazin-1-yl)methyl)benzyloxy)phenyl)hex-4-ynoic acid]
inhibition in vivo at 10 mg/kg (Male Sprague Dawley rats): 21.2%

pEC50 (human GPR40; [10]): < 6.52
Structure (SMILES): CC#C[C@@H](CC(=O)O)c1ccc(OCc2ccc(CN3CCN(c4ncc(CCC)cn4)CC3)cc2)cc1 [Example 44, (S)-3-(4-(4-((4-(5-propylpyrimidin-2-yl)piperazin-1-yl)methyl)benzyloxy)phenyl)hex-4-ynoic acid]
inhibition in vivo at 10 mg/kg (Male Sprague Dawley rats): 22.8%

Further lines, the compound ahead of its results:

Structure (SMILES): OC[C@H]1O[C@@H](c2ccc(Cl)c(Cc3ccc(O[C@H]4CCOC4)cc3)c2)[C@H](O)[C@@H](O)[C@@H]1O [Empagliflozin, empagliflozin]
Reduction (%) of blood glucose AUC ([1]; empagliflozin 1 mg/kg alone): 6.5%
Reduction (%) of blood glucose AUC ([1]; empagliflozin 3 mg/kg alone): 9.2%
Reduction (%) of blood glucose AUC ([1]; empagliflozin 10 mg/kg alone): 29.5%

Structure (SMILES): CC#C[C@@H](CC(=O)O)c1ccc(OCc2cccc(C3=CCC4(CC3)OCCO4)c2)cc1 [Example 9, L-lysine (3S)-3-(4-(3-(1,4-dioxaspiro[4.5]dec-7-en-8-yl)benzyloxy)phenyl)hex-4-ynoate]
inhibition in vivo at 10 mg/kg (Male Sprague Dawley rats): 24.7%
blood GLP-1 concentration compared with the glucose treated group (Veh.) [2]: increased the blood GLP-1 concentration
Reduction (%) of blood glucose AUC ([3]; Example 9 30 mg/kg alone): 10.1%
Reduction (%) of blood glucose AUC ([3]; Example 9 100 mg/kg alone): 15.4%
Reduction (%) of blood glucose AUC [4]: 14.8%
Reduction (%) of blood glucose AUC ([5]; Example 9 10 mg/kg alone): 9.1%
Reduction (%) of blood glucose AUC ([5]; Example 9 30 mg/kg alone): 11.4%
Reduction (%) of blood glucose AUC ([5]; Example 9 100 mg/kg alone): 12.7%
Reduction (%) of blood glucose AUC ([6]; oral, Example 9 1 mg/kg alone): 34.2%
Reduction (%) of blood glucose AUC ([6]; oral, Example 9 3 mg/kg alone): 40.9%
Reduction (%) of blood glucose AUC ([6]; oral, Example 9 10 mg/kg alone): 37.8%
Reduction (%) of blood glucose AUC ([7]; Example 9 3 mg/kg alone): 14.5%
Reduction (%) of blood glucose AUC ([1]; Example 9 3 mg/kg alone): 14.8%
Insulin ([8]; Example 9 0.01 μM alone): 99 ng/mL
Reduction (%) of blood glucose AUC ([9]; Example 9 10 mg/kg alone): 24.9%
Reduction (%) of blood glucose AUC ([9]; Example 9 30 mg/kg alone): 20.2%

Structure (SMILES): CC#CC(CC(=O)O)c1ccc(OCc2ccc(CN3CC=C(c4ccccc4)CC3)cc2)cc1 (stereo not drawn) [Example 14, 3-(4-(4-((4-phenyl-5,6-dihydropyridin-1(2H)-yl)methyl)benzyloxy)phenyl)hex-4-ynoic acid]
pEC50 (human GPR40; [10]): > 6.70
pEC50 (human GPR40; values in text, read-out: concentration activating the GPR40 protein by 50% (EC50)): ≥ 6.70
inhibition in vivo at 10 mg/kg (Male Sprague Dawley rats): 27.7%

Structure (SMILES): COc1ccc(Cl)cc1C(=O)NCCc1ccc(S(=O)(=O)NC(=O)NC2CCCCC2)cc1 [Glibenclamide, glibenclamide]
Insulin ([8]; glibenclamide 0.1 μM alone, vehicle 58): 73 ng/mL
Insulin ([8]; glibenclamide 1 μM alone): 72 ng/mL

Structure (SMILES): CCC1=C(C)CN(C(=O)NCCc2ccc(S(=O)(=O)NC(=O)N[C@H]3CC[C@H](C)CC3)cc2)C1=O [Glimepiride, glimepiride, reference compound]
Reduction (%) of blood glucose AUC ([5]; glimepiride 10 mg/kg alone): 44.6%

Structure (SMILES): CN(C)C(=N)N=C(N)N [Metformin, metformin]
Reduction (%) of blood glucose AUC ([6]; metformin 50 mg/kg alone): 21.7%
Reduction (%) of blood glucose AUC ([7]; metformin 10 mg/kg alone): 3.9%
Reduction (%) of blood glucose AUC ([7]; metformin 50 mg/kg alone): 7.3%
Reduction (%) of blood glucose AUC ([7]; metformin 100 mg/kg alone): 10.0%

Structure (SMILES): CCc1ccc(CCOc2ccc(CC3SC(=O)NC3=O)cc2)nc1 (stereo not drawn) [Pioglitazone, pioglitazone, reference compound]
Reduction (%) of blood glucose AUC ([9]; pioglitazone 10 mg/kg alone): 27.9%
